Data published in patent US20190345536A1, “DETECTION METHOD FOR CHROMOSOMAL ABNORMALITIES AND METHOD FOR EVALUATING INDUCIBILITY” (Sumitomo Chemical Company, Limited, priority 2016, published 2019).
Where two headings read alike, the source gives them in different places.

Tests used:
[1] = tested on: human iPS cell-derived T lymphocyte
[2] = tested on: human iPS cell-derived T lymphocyte; experiment: In vitro chromosomal aberration test using human iPS cell-derived T lymphocyte (Example 5); type: cell-based
Procedure: As human iPS cell-derived T lymphocyte, redifferentiated T lymphocyte derived from human iPS cell line “2” described in Example 1(1) was used. […] A test substance was used at the treatment dose (final concentration in medium) described in Table 7. For the treatment, a test substance was dissolved in PBS at a 100-fold concentration of the final concentration in the medium for addition at 1% (v/v). Treatment with a test substance was performed according to the process described in (4). […] After about 14 hr of culture, the total amount of the cell suspension was recovered by pipetting. The cell suspension was diluted with Rh-5 medium to a cell density of 2.0×10^5 cells/mL and reseeded in a 12 well plate not coated with the antibody at 2 mL per well, and culture was continued. Treatments with MMC, EMS and MAN were performed according to the method described below. That is, after about 24 hr from the reseeding in (3), a solution (20 μL) obtained by dissolving a test substance in PBS at a 100-fold concentration of the final concentration described in Table 5 was further added and the cells were treated for 27 hr. Different from a test substance treatment group, PBS (20 μL) was added and a similar treatment was performed for 27 hr to prepare a negative control group. About 2 hr before completion of the treatment, KaryoMAX (registered trade mark) Colcemid™ Solution in HBSS (Life technologies) (20 μL) was added to the well (final concentration in medium: 0.1 μg/mL) to discontinue the cell cycle, and cells in mitotic metaphase were enriched. At the time of start of the test substance treatment, a part of the cell suspension of the negative control group was separated and the number of the cells was measured using a counting chamber. […] All remaining cell suspension was collected in a centrifuge tube and PBS was added to a total volume of 5 mL, after which the mixture was centrifuged (1000 rpm, 5 min). The supernatant was removed, 75 mM KCl heated to 37° C. was added and a hypotonic treatment was performed for 5 min. To the cell suspension after the hypotonicity was added 1/5 volume of a fixation solution (methanol:glacial acetic acid=3:1), and the cells were semi-fixed and centrifuged (4° C., 1000 rpm, 3 min). After centrifugation, the supernatant was substituted with a fresh fixation solution, and the cells were fixed and centrifuged (4° C., 1000 rpm, 3 min). The operation was repeated 3 times, and the cells were sufficiently fixed and centrifuged again (4° C., 1000 rpm, 3 min). The cells were suspended in a small amount of a fixation solution. […] Chromosomal abnormalities were classified into chromatid break, chromosome break, chromatid exchange, chromosome exchange, and other structural abnormalities and counted. […]

[3] = tested on: human iPS cell-derived T lymphocyte; experiment: In vitro comet assay using human iPS cell-derived T lymphocyte (Example 6); type: cell-based
Procedure: As human iPS cell-derived T lymphocyte, redifferentiated T lymphocyte derived from human iPS cell line “2” described in Example 1(1) was used. […] A test substance was used at the treatment dose (final concentration in medium) described in Table 9. For the treatment, a test substance was dissolved in PBS at a 100-fold concentration of the final concentration in the medium for addition at 1% (v/v). A test substance was treated according to the process described in (4). […] Each well was washed twice with 1 mL of PBS, redifferentiated T lymphocytes derived from human iPS cell line described in (1) were suspended in Rh-medium at a cell density of 2.0×10^6 cells/mL and added to each well. After about 13 hr of culture, the total amount of the cell suspension was recovered by pipetting. The cell suspension was diluted with Rh-5 medium to a cell density of 2.0×10^5 cells/mL and reseeded in a 24 well plate not coated with the antibody at 1 mL per well, and culture was continued. Treatments with EMS and MAN were performed according to the method described below. That is, after about 24 hr from the reseeding in (3), a solution (10 μL) obtained by dissolving a test substance in PBS at a 100-fold concentration of the final concentration described in Table 9 was further added and the cells were treated for 4 hr. […] On completion of the additional culture, a part of the cell suspension was separated and the number of the cells was measured using a counting chamber. […] The prepared specimen was stained for nucleic acid using SYBR (registered trade mark) Gold, and observed under a fluorescence microscope at 200-fold magnification. 75 nuclei per specimen and 150 nuclei in two specimens per condition were imaged, % tail DNA was calculated using an image analyzer Comet Assay IV, and DNA damaging activity was determined. The % tail DNA was calculated as a percentage of the fluorescence brightness of the tail to the fluorescence brightness of the whole cell nucleus. […]

[4] = tested on: human iPS cell-derived T lymphocyte; experiment: Proliferation ability of human iPS cell-derived T lymphocyte by various proliferation stimulation factors (ATP amount, CellTiter-Glo; Comparative Example 1); type: cell-based
[5] = from known documents (Kirkland 2016; Lasne 1984; Aardema 2006); cited from earlier work
[6] = from known documents (Kirkland 2016; Lasne 1984); cited from earlier work
[7] = from known documents (Kirkland 2016; Lasne 1984); cited from earlier work; remark: listed apart in the source
[8] = tested on: human iPS cell-derived T lymphocyte; experiment: Division kinetics of human iPS cell-derived T lymphocyte stimulated with PHA (CytoB, CBPI; Comparative Example 2); type: cell-based; conditions: CytoB 24 hr
[9] = tested on: human peripheral blood-derived mononuclear cells PBMC (feeder cell, 35Gy X-ray); experiment: Division kinetics of feeder cells alone under PHA stimulation (comparison control, Comparative Example 2); type: cell-based; conditions: feeder cell only, 5 μg/mL PHA, CytoB 24 hr
[10] = iPS cell line 2, 27 hr treatment, doses of Table 7, 300 metaphase cells, Fisher's exact test
[11] = proliferation stimulation for 66 hr
[12] = absence of feeder cells, 3 μg/mL PHA, 426 cells observed
[13] = coculture with feeder cells, 5 μg/mL PHA, 500 cells observed

O=P1(N(CCCl)CCCl)NCCCO1 (centres unmarked) [CPA, cyclophosphamide monohydrate]
judgment result obtained in this Example (in vitro micronucleus test) [1]: positive

CCOS(C)(=O)=O [EMS, ethyl methanesulfonate]
judgment result obtained in this Example (in vitro chromosomal aberration test) [2]: positive
judgment result obtained in this Example (in vitro comet assay) [3]: positive
judgment result obtained in this Example (in vitro micronucleus test) [1]: positive

C[C@H](CCC(=O)O)C[C@H](C)C[C@H](C)C(=O)/C=C(\O)[C@H](C)C[C@H](C)C/C=C/[C@@H](C)[C@@H](O)[C@@H](C)[C@@H](O)C[C@@H]1CC[C@@](C)([C@H]2CC[C@@](C)([C@@H](C)O)O2)O1 [Ionomycin]
proliferation of human iPS cell-derived T lymphocyte by proliferation stimulation [4]: does not proliferate

OC[C@@H](O)[C@@H](O)[C@H](O)[C@H](O)CO [MAN, D(−)-mannitol]
increase in frequency of chromosomal aberration ([2]; all doses (FIG. 12)): no statistically significant increase
judgment result obtained in this Example (in vitro chromosomal aberration test) [2, 10]: negative
increase in % tail DNA ([3]; all doses (FIG. 14)): no statistically significant increase
judgment result obtained in this Example (in vitro comet assay) ([3]; iPS cell line 2, 4 hr treatment, doses of Table 9, % tail DNA, Dunnett's test): negative
increase in frequency of micronucleus [1]: no statistically significant increase
judgment result obtained in this Example (in vitro micronucleus test) [1]: negative
judgment result expected from known information (in vitro micronucleus test) [5]: negative
judgment result expected from known information (in vitro chromosomal aberration test) [6]: negative
judgment result expected from known information (in vitro comet assay) [7]: negative

CO[C@@]12[C@H](COC(N)=O)C3=C(C(=O)C(C)=C(N)C3=O)N1C[C@@H]1N[C@@H]12 [MMC, mitomycin C]
judgment result obtained in this Example (in vitro chromosomal aberration test) [2, 10]: positive
judgment result obtained in this Example (in vitro micronucleus test) [1]: positive
judgment result expected from known information (in vitro chromosomal aberration test) [6]: positive

CCCCCCCCCCCCCC(=O)O[C@@H]1[C@@H](C)[C@@]2(O)[C@@H](C=C(CO)C[C@]3(O)C(=O)C(C)=C[C@@H]23)[C@@H]2C(C)(C)[C@]12OC(C)=O [PMA, phorbol 12-myristate 13-acetate]
luminescent signal (count) [4]: 5784 count
proliferation of human iPS cell-derived T lymphocyte by proliferation stimulation [4]: does not proliferate
proliferation rate [4]: 4.5%

Concanavalin A [Con A]
luminescent signal (count) ([4]; 5 μg/mL Con A, 66 hr, background subtracted): 10064 count
proliferation rate ([4]; 5 μg/mL Con A, 66 hr, percentage of signal at seeding): 7.8%
proliferation of human iPS cell-derived T lymphocyte by proliferation stimulation [4, 11]: does not proliferate

bleomycin sulfate [BLM]
judgment result obtained in this Example (in vitro micronucleus test) [1]: positive

phytohemagglutinin [PHA]
luminescent signal (count) ([4]; 1 μg/mL PHA, 66 hr, background subtracted): 10984 count
proliferation rate ([4]; 1 μg/mL PHA, 66 hr, percentage of signal at seeding): 8.5%
luminescent signal (count) ([4]; 5 μg/mL PHA, 66 hr, background subtracted): 15024 count
proliferation rate ([4]; 5 μg/mL PHA, 66 hr, percentage of signal at seeding): 11.7%
proliferation of human iPS cell-derived T lymphocyte by proliferation stimulation [4, 11]: does not proliferate
CBPI ([8]; absence of feeder cells, 3 μg/mL PHA): 1.39
binucleated cell number [8, 12]: 160
mononucleated cell number [8, 12]: 262
multinucleated cell number [8, 12]: 4
CBPI ([8]; coculture with feeder cells, 5 μg/mL PHA): 1.15
binucleated cell number [8, 13]: 71
mononucleated cell number [8, 13]: 426
multinucleated cell number [8, 13]: 3
CBPI [9]: 1.03
binucleated cell number ([9]; 500 cells observed): 11
mononucleated cell number ([9]; 500 cells observed): 488
multinucleated cell number ([9]; 500 cells observed): 1
